US5527703A (Merck & Co., Inc., priority 1994, dated 1996)

Experiments:
GluClα = target: T1, GluClα (Caenorhabditis elegans, UniProt G5EBR3); experiment: Glutamate current after IVMPO4 current activation, GluClα injected oocytes; assay type: cell-based, C. elegans; set-up: the full-length open reading frame of the GluCl cDNA encoding the GluClα (52,550 kDa) and GluClβ (49,900kDa) subunits; expressed in transfected cells; host or cells: Xenopus laevis oocytes injected with in vitro RNA
T1 sequence (G5EBR3 21-461): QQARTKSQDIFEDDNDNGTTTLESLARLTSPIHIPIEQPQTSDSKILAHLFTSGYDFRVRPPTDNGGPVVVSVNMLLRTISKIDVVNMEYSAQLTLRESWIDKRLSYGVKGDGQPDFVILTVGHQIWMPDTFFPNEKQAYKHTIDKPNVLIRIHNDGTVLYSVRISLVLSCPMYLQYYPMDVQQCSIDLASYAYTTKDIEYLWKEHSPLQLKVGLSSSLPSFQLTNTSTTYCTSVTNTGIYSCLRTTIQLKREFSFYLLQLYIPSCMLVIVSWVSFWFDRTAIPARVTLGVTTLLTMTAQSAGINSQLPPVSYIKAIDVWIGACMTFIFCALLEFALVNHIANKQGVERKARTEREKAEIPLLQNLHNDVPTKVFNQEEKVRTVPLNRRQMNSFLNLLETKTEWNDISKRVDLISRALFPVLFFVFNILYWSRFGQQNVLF
Method: (§1) Xenopus laevis oocytes were prepared and injected using standard methods previously described and known in the art [Arena, J. P., Liu. K. K., Paress, P. S. & Cully. D. F. Mol. Pharmacol. 40, 368-374 (1991 ); Arena, J. P., Liu, K. K., Paress, P. S., Schaeffer, J. M. & Cully, D. F. Mol. Brain Res. 15, 339-348 (1992)]. Adult female Xenopus laevis were anesthetized with 0.17% tricaine methanesulfonate and the ovaries were surgically removed and placed in a dish consisting of (mM): NaCl 1 82.5, KCl 2. MgCl2 1, CaCl2 1.8, HEPES 5 adjusted to pH 7.5 with NaOH (OR-2). Ovarian lobes were broken open, rinsed several times, and gently shaken in OR-2 containing 0.2% collagenase (Sigma, Type 1A) for 2-5 hours. […]
(§2) Recordings were made at room temperature 2-10 days after injection. […] Data were acquired and analyzed using PCLAMP with a TL-1 interface (Axon Instruments, Foster City, Calif.). Membrane current at a holding potential of -80 mV was recorded. The amplitude of drug-sensitive current was determined by subtracting the holding current at -80 mV from the peak current obtained in the presence of drug. […] Current/voltage relationships (I/V) and reversal potentials (Erev) were determined using a 1-3 sec voltage ramp over the voltage range of -110 to +80 mV. […]

GluClβ = target: T2, GluClβ (Caenorhabditis elegans, UniProt Q17328); experiment: Modulation of glutamate-sensitive current by IVMPO4, GluClβ injected oocytes; assay type: cell-based, C. elegans
T2 construct: the full-length open reading frame of the GluCl cDNA encoding the GluClα (52,550 kDa) and GluClβ (49,900kDa) subunits; expressed in transfected cells; host or cells: Xenopus laevis oocytes injected with in vitro RNA
T2 sequence (Q17328 23-434): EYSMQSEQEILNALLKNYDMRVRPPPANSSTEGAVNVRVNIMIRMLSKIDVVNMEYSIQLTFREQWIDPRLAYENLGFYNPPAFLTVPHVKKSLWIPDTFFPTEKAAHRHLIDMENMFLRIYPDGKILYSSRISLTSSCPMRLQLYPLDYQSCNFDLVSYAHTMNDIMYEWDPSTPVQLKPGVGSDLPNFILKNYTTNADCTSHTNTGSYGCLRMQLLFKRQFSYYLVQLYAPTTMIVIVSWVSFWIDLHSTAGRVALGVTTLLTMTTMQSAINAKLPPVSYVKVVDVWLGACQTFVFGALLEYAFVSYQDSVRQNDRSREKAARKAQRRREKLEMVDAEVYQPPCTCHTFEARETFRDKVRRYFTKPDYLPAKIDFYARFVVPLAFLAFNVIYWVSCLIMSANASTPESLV
Method: as §1, §2

| Compound | lowest glutamate concentrations at which glutamate-sensitive current could be observed (GluClα; following IVMPO4 current activation) | increase in current with glutamate (GluClα; prior activation of current with IVMPO4) | reduction of glutamate-sensitive current (GluClβ; following IVMPO4 1 μM) | potentiation of glutamate response (GluClβ; homomeric GluClβ channels) |
| --- | --- | --- | --- | --- |
| N[C@@H](CCC(=O)O)C(=O)O [glutamate] | 10 µM | 20±4% | – | – |
| ivermectin-4-O-phosphate [IVMPO4] | – | – | 88±4% | not potentiated |
